In publication PMC7719179, “Small molecule inhibition of Dynamin-dependent endocytosis targets multiple niche signals and impairs leukemia stem cells” (Nature Communications, 2020):
“And” between values parts separate entries of the source, which are not always exact repeats. Equal values may be shown once.

Experiments:
Type in all cases: cell-based, murine
[1] = tested on: IL-7 signalling (pStat5) in Ba/F3-IL7R cells; assay: IL-7-induced phospho-Stat5 in Ba/F3-IL7R cells (phosphoflow); settings: Ba/F3-IL7R cells; result in words
Method: (§1) Ba/F3 cells (kindly provided by a person from The Walter and Eliza Hall Institute of Medical Research) were infected with pMIG-R1/Il7r retroviral supernatants produced in 293T cells, and transduced cells were sorted with a BD Influx (BD Australia) and selected by culture in medium supplemented with 5 ng/mL rmIL-7 (#217-17, Pepro Tech, Rocky Hill NJ, USA) for 7 days. Ba/F3 cells stably expressing Il7r (Ba/F3-IL7R) were infected with TxTCPVIR-Stat5-CA retroviral supernatants produced in 293T. Cell sorting was performed with a BD Influx and transduced cells were treated with doxycycline for 48 h to induce the expression of the Stat5-CA-T2A-mCherry fusion protein.
Phosphoflow analysis was performed as previously described. Briefly, 2 × 10^6 cells stained for surface markers were subsequently resuspended into PBS 1× + 4% v/v paraformaldehyde and incubated for 10 min at 4 °C for fixation. Fixed cells were washed twice using PBS 1×, then resuspended in pre-chilled at −20 °C Perm Buffer III (BD Pharmingen) and incubated 30 min at 4 °C for permeabilization. Cells were washed twice using PBS 1× and incubated overnight at 4 °C in PBS 1× + 2% v/v fetal calf serum (FCS) with Cell Signalling purified antibodies (Genesearch Pty Ltd, Arundel QLD, Australia) against pSTAT5 (Tyr694; #9359), phospho-p38 MAPK (Thr180/Tyr182; #4511), phospho-p44/42 (Erk1/2; #9102), phospho-S6 (Ser235/236; #4856) and phospho-Akt (Ser473; #9271) or isotype control. For intracellular HES1 detection, cells stained for surface markers were subsequently fixed and permeabilized using the BD Cytofix/Cytoperm^TM Kit and incubated overnight at 4 °C in PBS 1× + 2% v/v FCS with a purified antibody against HES1 (D6PU; #11988, Cell Signalling) or isotype control. After staining with primary antibodies for phosphoflow or intracellular detection, cells were incubated in permeabilization buffer with donkey Alexa Fluor 488-conjugated anti-rabbit secondary antibody (A-21206, lot #1910751, Molecular Probes, Invitrogen) or goat Alexa Fluor 546-conjugated anti-rabbit secondary antibody (A-11035, lot #1904467, Molecular Probes, Invitrogen) for 1 h on ice, and washed twice in PBS 1×. Fluorescence-activated cell sorting (FACS) analysis was performed using LSRII and LSR Fortessa cytometers, following the gating strategies described in Supplementary Fig. 11. Cell sorting was performed with a FACSAria or BD Influx.
For in vitro IL-7 stimulation assays, cells were starved in serum-free DMEM at 37 °C, then incubated with either vehicle or Dynole 34-2 or Ruxolitinib (INCB018424; #S1378, Selleckchem), or DAPT (GSI-IX; #S2215, Selleckchem) resuspended in DMSO for 1 h. Thymocytes were subsequently stimulated with 25 ng/mL IL-7 at 37 °C for 20 min and washed twice using cold PBS 1×. Cells were incubated with 25 ng/mL Rat IgG (Sigma-Aldrich Pty Ltd, Castle Hill NSW, Australia) and with a PE-conjugated antibody for detection of IL-7R (CD127) for 1 h on ice, as described in the FACS analysis section. PE-conjugated isotype was used as negative control. Cells were washed twice, fixed and phosphoflow analysis performed as described in the FACS analysis section. The analysis was performed in triplicate and the mean fluorescence intensity (MFI) observed without stimulation was reported as 100%.

[2] = tested on: Ba/F3-IL7R^Stat5-CA cells; assay: pStat5 and proliferation of Ba/F3-IL7R^Stat5-CA cells with IL-7 or doxycycline; settings: relative to data from day 0, reported as 1, groups +IL-7 -DOX or -IL-7 +DOX
Method: as §1, with “protein. […]” for “protein.”
(red) assessed by flow cytometry (top) and Western blots (bottom). MFI ± SD of n=2 technical replicates, performed in 2 independent experiments (***P<0.001 compared to unstimulated cells ; white bar). For Western blots, Actin was used as a loading control. f, Proliferation of BaF3-IL7R Stat5-CA cells in absence (+IL-7 –DOX; grey) or presence (-IL-7 +DOX; red) of doxycycline. Fold expansion was calculated from the number of cells initially put into culture at day 0. […]

[3] = tested on: Ba/F3-IL7R^Stat5-CA cells; assay: Cytotoxic activity in IL-7-dependent and IL-7-independent Ba/F3-IL7R^Stat5-CA cells; settings: for Survival (%) over survival at day 0, reported as 100%: Ba/F3-IL7R^Stat5-CA cells, dose = IC50 or LC50 of each drug
From the text: The doxycycline-inducible dual-colour TRMPVIR (TRE-dsRed-miR30/shRNA-PGK-Venus-IRES-rtTA3) retroviral vector[84] was kindly given by R. A. Dickins and was modified by replacing the dsRed-miR30/shRNA sequence by a T2A self-cleaving peptide[85] fusioned with the mCherry fluorescent protein (from TRIPZ, Addgene) inserted into the BamHI and EcoRI sites of the plasmid downstream of the TRE promoter to generate the TxTCPVIR (TRE-gene-T2A-mCherry-PGK-Venus-IRES-rtTA3) retroviral vector. Using standard cloning techniques, we inserted the full-length sequence of Stat5-CA from the pMig-R1 construct into the TxTCPVIR vector to generate the TxTCPVIR-Stat5-CA construct. All subcloned constructs were verified by DNA sequencing (Micromon, Monash University, Australia). Detailed cloning strategies, primers sequences and vectors are available on request.
as §1
Flow cytometry analyses were performed as previously described[10],[86] on single-cell suspensions stained using BD Pharmingen antibodies (BD Australia, North Ryde NSW, Australia) against mouse CD4 (RM4-5), CD8 (53-6.7), CD25 (PC61.5), CD44 (IM7), CD45.1 (A20), CD45.2 (104), Thy1.2 (53-2.1; #561616), TCRβ (H57-597), CD117 (ACK45), CD135 (A2F10.1), CD150 (TC15-12F12.2; #562373), B220 (RA3-6B2; #563708), CD3 (145-2C11; #563004), CD19 (ID3; #557655), Gr-1 (RB6-8C5; #563299 and #565033), CD11b (M1/70; #563015 and #560455), Ter119 (Ter119; #565523 and #557909), Sca-1 (D7; #558160) and an eBioscience antibody (eBioscience, Invitrogen) against mouse NOTCH1 (22E5). DN3 populations and IL-7R were stained using BioLegend antibodies (Australian Biosearch, Balcatta WA, Australia) against mouse CD28 (E18) and CD127 (A7R34), respectively. Apoptosis was measured using an antibody against AnnexinV (#556420, BD Australia) and the […] Sytox Blue (BD Australia) following the manufacturer’s protocol.

With `O=C(N/N=C/c1ccc(O)c(O)c1)c1cc2ccccc2cc1O` [Dynasore, reference compound] the “inhibition of IL-7 signalling as measured by loss of phospho-Stat5” value [1] was “dose-dependent inhibition”.
In the case of `C[C@H]1c2cccc(O)c2C(=O)C2=C(O)[C@]3(O)C(=O)C(C(N)=O)=C(O)[C@@H](N(C)C)[C@@H]3[C@@H](O)[C@@H]21` [DOX], the Fold expansion ([2]; 24 h) is reported as 0.89 and 0.85 and 0.86 and 0.90 and 0.74 and 0.77, the Fold expansion ([2]; 48 h) is reported as 1.39 and 1.43 and 1.24 and 1.40 and 1.29 and 1.28 and the Fold expansion ([2]; 72 h) is reported as 2.22 and 2.26 and 3.46 and 3.54 and 3.68 and 3.14. For the same molecule, the Fold expansion ([2]; 96 h) was 3.24 and 3.39 and 3.99 and 3.41 and 3.51 and 3.96 and the Fold expansion ([2]; 120 h) was 10.84 and 12.62 and 8.80 and 9.76 and 7.34 and 8.20.
With IL-7 the Fold expansion ([2]; 24 h) was 0.74 and 0.75 and 0.79 and 0.97 and 0.91 and 0.98, the Fold expansion ([2]; 72 h) was 2.37 and 2.58 and 4.20 and 3.96 and 3.95 and 3.51 and the Fold expansion ([2]; 120 h) was 9.32 and 11.24 and 15.76 and 15.48 and 14.68 and 15.08.
For `CC[C@]1(O)C[C@H]2CN(CCc3c([nH]c4ccccc34)[C@@](C(=O)OC)(c3cc4c(cc3OC)N(C=O)[C@H]3[C@@](O)(C(=O)OC)[C@H](OC(C)=O)[C@]5(CC)C=CCN6CC[C@]43[C@@H]65)C2)C1` [Vincristine], the “Survival (%) over survival at day 0, reported as 100%” value (“Survival (%) over survival” below) ([3]; +IL-7 -DOX, 0 h) was 100.02% and 100.26% and 100.28% and 99.72% and 99.53% and 100.47%, the “Survival (%) over survival” value ([3]; +IL-7 -DOX, 24 h) was 97.78% and 97.03% and 92.76% and 93.67% and 88.90% and 79.18% and the “Survival (%) over survival” value ([3]; +IL-7 -DOX, 48 h) was 60.76% and 61.24% and 44.94% and 67.20% and 75.05% and 65.49%. For the same molecule, the “Survival (%) over survival” value ([3]; +IL-7 -DOX, 72 h) was 42.05% and 38.67% and 50.69% and 46.55% and 54.10% and 54.58%, the “Survival (%) over survival” value ([3]; +IL-7 -DOX, 96 h) was 9.57% and 5.19% and 6.30% and the “Survival (%) over survival” value ([3]; -IL-7 +DOX, 0 h) was 100.62% and 100.47% and 99.53% and 102.59% and 99.98% and 100.02%. For the same molecule, the “Survival (%) over survival” value ([3]; -IL-7 +DOX, 24 h) was 84.77% and 83.72% and 89.11% and 91.00% and 83.57% and 82.00%, the “Survival (%) over survival” value ([3]; -IL-7 +DOX, 48 h) was 82.10% and 78.50% and 82.90% and 69.10% and 67.20% and 82.60% and the “Survival (%) over survival” value ([3]; -IL-7 +DOX, 72 h) was 60.60% and 57.90% and 64.60% and 57.00% and 62.20% and 65.20%. The “Survival (%) over survival” value ([3]; -IL-7 +DOX, 120 h) was 34.10% and 40.50% and 30.80% and 32.50% and 34.90% and 26.60% and the “sensitivity of Ba/F3-IL7R^Stat5-CA cells with constitutive pStat5 (doxycycline)” value ([3]; result in words) was “equally effective”.
With `O=C(NN=Cc1cc(O)c(O)cc1O)c1cc2ccccc2cc1O` [Dyngo 4a, 3-Hydroxy-N’-[(2,4,5-trihydroxyphenyl)-methylidene]-naphthalene-2-carbohydrazide, reference compound] the “inhibition of IL-7 signalling as measured by loss of phospho-Stat5” value [1] was “dose-dependent inhibition”.
